# Measured values reported in patent US11603368B2, “Fused thiophene derivatives and their uses” (ENYO PHARMA, priority 2018, dated 2023).
# Assays:
# NFκB = NFκB reporter assay, TNFα stimulation; type: cell-based; conditions: Homo sapiens; A549 NFκB-NanoLuciferase reporter cells, 4 ng/ml TNFα, 6 hours
# From the text: Compounds of the present invention have been tested for their capacity to inhibit NFκB.
# The NFκB reporter construct was made by cloning 5 NFκB responsive elements upstream of a NanoLuciferase reporter gene flanked by AAVS1 genomic sequences.
# NFκB Responsive element fused with NanoLuciferase and SV40 late Poly(A) signal was amplified from pNL3.2-NFκB-Nluc (Promega) using NFκB-NLUC-F and NFκB-NLUC-R primers and inserted by Infusion (TaKaRa) in AAVS1 SA-2A-puro-pA donor plasmid (Hockemeyer et al, Nat Biotechnol. 2009, 27, 851-7) digested by Sal1. pCRISPR AAVS1-T2 expressing a guide RNA (gRNA) to target human AAVS1 (T2 target sequence) was constructed by inserting AAVS1-T2A hybridized primers in pLentiCRISPR v2-blast (Sanjana et al, Nat Methods. 2014, 11, 783-4) digested by Bsmb1.
# A549 cells were transfected by the plasmids and puromycine selected for 5 days (1 μg mL-1). Then clones were obtained by limiting dilution and selected to maximize TNF dependent NFkB-NanoLuciferase induction.
# The reporter cells were seeded on a 96-well plate for overnight with DMEM including 10% FBS. Test compounds were added at varying concentrations. The cells then were treated with 4 ng/ml TNFα (Peprotech, ref E251) in DMEM+10% FBS. NanoGlo luciferase assay (Promega) was carried out 6 hours later. Luminescence was measured using a Spark 20M spectrofluorimeter (Tecan). Values were normalized to the luminescence measured in untreated cells.
# [1] = test system: H1N1 (influenza A/New Caledonia/20/99); assay: Antiviral effect on A549 cells infected with H1N1; type: cell-based, H1N1 A/New Caledonia/20/99 virus; conditions: Human A549 cells, MOI of 0.1, 48 h post-infection, MUNANA hydrolysis readout
# Method in brief: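 Human A549 cells were treated with a concentration range of compound and immediately infected with H1N1 A/New Caledonia/20/99 at MOI 0.1 in DMEM with 0.25 μg/ml TPCK trypsin, 37° C. At 48 h, supernatant neuraminidase activity was measured on MUNANA (stock 20 μM) for 1 h at 37° C. 4-MU fluorescence was read at ex 365/em 450 nm.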
# [2] = molecular target: T1, CISD1 Gene Product (mitoNEET) (Homo sapiens, UniProt Q9NZ45); assay: Stability of Fe—S cluster binding of purified NEET protein mitoNEET; type: biochemical; conditions: for Time (in minutes) to achieve 50% loss of bound cluster (Absorbance 458 nm), CISD1 Gene Product (mitoNEET) / Residual cluster bound at end of experiment (Percentage Absorbance 458 nm at time zero), CISD1 Gene Product (mitoNEET): pH 6, 37° C., 1:3 protein:compound molar ratio; for Time (in minutes) to achieve 50% loss of bound cluster (Absorbance 458 nm), CISD1 Gene Product (mitoNEET): 6 μM compound, run time 180 minutes, Vehicle Control 80; for Residual cluster bound at end of experiment (Percentage Absorbance 458 nm at time zero), CISD1 Gene Product (mitoNEET): end of 180 minutes, Vehicle Control 16%; for stabiliser or destabiliser of Fe—S cluster binding, CISD1 Gene Product (mitoNEET): time to 50% Fe—S cluster bound loss changed by more than 25% vs Control sample, at the concentrations tested
# T1 sequence (Q9NZ45 33-108 limits assumed): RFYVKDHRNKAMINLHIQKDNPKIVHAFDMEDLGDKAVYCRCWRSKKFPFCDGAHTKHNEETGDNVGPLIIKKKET
# Description: (§1) The modulator effect on the NEET proteins encoded by human CISD1, CISD2, and CISD3 genes by the compounds of the invention has been tested and is reported below. Particularly, the biochemical function of the NEET proteins is measured by the stability of Fe—S cluster binding of the purified NEET proteins.
# (§2) The Fe—S cluster binding capacity of NEET proteins is known to be coordinated by four amino-acids in a stretch of 16 (three Cysteine and one Histidine). As the lability of the Fe—S cluster of NEET proteins is sensitive to the environment, cluster stability measurements are one of the measures of interactions of NEET proteins with small molecules and compounds. NEET protein/2Fe-2S cluster stability can be assessed by monitoring the decay in absorbance of its characteristic 458-nm peak (characteristic of the oxidized 2Fe-2S cluster) over time. Each NEET protein (mitoNEET, NAF-1 and Miner 2) was tested for its Fe—S binding in the absence or presence of a compound according to the invention (see table 2 below). The rate of cluster release (time in minutes to achieve 50% loss of bound Fe—S cluster) was compared for each NEET protein in the presence of one of the compounds of the invention (in a 1:3 protein:compound molar ratio) relative to each protein alone.
# (§3) At pH 6, all the three NEET proteins (mitoNEET, NAF-1 and Miner 2) have a characteristic rate of loss of the bound Fe—S cluster that can be measured by the decrease of absorbance at wavelength 458 nm over time, using a spectrophotometer. Thus, Bis-Tris buffer (100 mM Bis-Tris pH6, 100 mM Nacl) was used at pH 6 to dilute either DMSO (Blank sample: Bis-Tris Buffer pH 6, 6 μM DMSO), DMSO and one of the three NEET proteins (Control sample: Bis-Tris Buffer pH 6, 6 μM DMSO, 2 μM purified NEET protein) or DMSO, one of the three NEET proteins and a compound of the invention (Test sample: Bis-Tris Buffer pH 6, 6 μM DMSO, […], 6 μM compound of the invention).
# (§4) A reaction mix containing DMSO diluted in the Bis-Tris Buffer with or without a compound of the invention was prepared. The purified NEET protein was the last component added to the reaction mix which was then aliquoted into 4 replicates in 96 wells plates. The absorbance at wavelength 458 nm was taken at 5 minutes intervals at 37° C. with a spectrofluorimeter. The assay run time for CISD2 gene product (NAF-1) was 500 minutes and 180 minutes for both the CISD 1 gene product (mitoNEET) and the CISD3 gene product (Miner 2).
# (§5) In addition to time monitoring, residual bound Fe—S cluster to NEET protein was measured at the final point of the spectrometry assay for each Test sample and compared to the Control sample data (in parenthesis table 2). This residual binding is measured by the differential percentage between the absorbance 458 nm at time zero and the absorbance 458 nm at the end of the experiment (i.e. respectively 500 or 180 minutes as described hereabove), showing the percentage of NEET protein still able to bind a Fe—S cluster.
# (§6) Analysis of the absorbance enables the time for which 50% loss of bound Fe—S cluster is reached (i.e. a 50% absorbance decrease at 458 nm) for each Test sample and each Control sample (in parenthesis table 2) to be determined. The data are then compared to determine whether the compound of the invention stabilizes or destabilizes the NEET protein/Fe—S cluster binding.
# [3] = molecular target: T2, CISD2 Gene Product (NAF-1) (Homo sapiens, UniProt Q8N5K1); assay: Stability of Fe—S cluster binding of purified NEET protein NAF-1; type: biochemical; conditions: for Time (in minutes) to achieve 50% loss of bound cluster (Absorbance 458 nm), CISD2 Gene Product (NAF-1) / Residual cluster bound at end of experiment (Percentage Absorbance 458 nm at time zero), CISD2 Gene Product (NAF-1): pH 6, 37° C., 1:3 protein:compound molar ratio; for Time (in minutes) to achieve 50% loss of bound cluster (Absorbance 458 nm), CISD2 Gene Product (NAF-1): 6 μM compound, run time 500 minutes, Vehicle Control 310; for Residual cluster bound at end of experiment (Percentage Absorbance 458 nm at time zero), CISD2 Gene Product (NAF-1): end of 500 minutes, Vehicle Control 3%
# T2 sequence (Q8N5K1 57-135 limits assumed): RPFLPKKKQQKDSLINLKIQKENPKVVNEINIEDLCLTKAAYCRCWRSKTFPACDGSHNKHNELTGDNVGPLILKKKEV
# Description: as §1, §2, §3, §4, §5, §6
# [4] = molecular target: T3, CISD3 Gene Product (Miner2) (Homo sapiens, UniProt P0C7P0); assay: Stability of Fe—S cluster binding of purified NEET protein Miner2; type: biochemical; conditions: for Time (in minutes) to achieve 50% loss of bound cluster (Absorbance 458 nm), CISD3 Gene Product (Miner2) / Residual cluster bound at end of experiment (Percentage Absorbance 458 nm at time zero), CISD3 Gene Product (DMSO 11%): pH 6, 37° C., 1:3 protein:compound molar ratio; for Time (in minutes) to achieve 50% loss of bound cluster (Absorbance 458 nm), CISD3 Gene Product (Miner2): 6 μM compound, run time 180 minutes, Vehicle Control 60; for Residual cluster bound at end of experiment (Percentage Absorbance 458 nm at time zero), CISD3 Gene Product (DMSO 11%): end of 180 minutes, Vehicle Control 11%; for stabiliser or destabiliser of Fe—S cluster binding, CISD3 Gene Product (Miner2): time to 50% Fe—S cluster bound loss changed by more than 25% vs Control sample, at the concentrations tested
# T3 sequence (P0C7P0 15-127): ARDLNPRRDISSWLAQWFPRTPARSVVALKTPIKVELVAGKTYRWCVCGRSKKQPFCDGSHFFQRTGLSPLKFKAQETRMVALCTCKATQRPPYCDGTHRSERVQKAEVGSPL
# Description: as §1, §2, §3, §4, §5, §6
# [5] = Influenza A virus, H1N1, A549, 48 h
Compound,EC50 (NFκB),"IC50 [1, 5]","Time (in minutes) to achieve 50% loss of bound cluster (Absorbance 458 nm), CISD1 Gene Product (mitoNEET) [2]","Residual cluster bound at end of experiment (Percentage Absorbance 458 nm at time zero), CISD1 Gene Product (mitoNEET) [2]","stabiliser or destabiliser of Fe—S cluster binding, CISD1 Gene Product (mitoNEET) [2]","Time (in minutes) to achieve 50% loss of bound cluster (Absorbance 458 nm), CISD2 Gene Product (NAF-1) [3]","Residual cluster bound at end of experiment (Percentage Absorbance 458 nm at time zero), CISD2 Gene Product (NAF-1) [3]","Time (in minutes) to achieve 50% loss of bound cluster (Absorbance 458 nm), CISD3 Gene Product (Miner2) [4]","Residual cluster bound at end of experiment (Percentage Absorbance 458 nm at time zero), CISD3 Gene Product (DMSO 11%) [4]","stabiliser or destabiliser of Fe—S cluster binding, CISD3 Gene Product (Miner2) [4]",IC50 [1],"stabiliser or destabiliser of Fe—S cluster binding, CISD2 Gene Product (NAF-1) ([3]; time to 50% Fe—S cluster bound loss changed by more than 25% vs Control sample, at the concentrations tested)"
COc1ccc(C(=O)Nc2sc3c(c2C(=O)O)CCC(C(C)(C)C)C3)cc1 (centres unmarked) [#1],160 nM,54.8 nM,,,,,,,,,,
CC(C)(C)C1CCc2c(sc(NC(=O)c3ccc(Cl)cc3)c2C(=O)O)C1 (centres unmarked) [#10],300 nM,26 nM,during 180 minutes,62%,stabilisers,290 min,42%,during 180 minutes,56%,Stabilisers,,
CC(C)(C)C1CCc2c(sc(NC(=O)c3ccccc3F)c2C(=O)O)C1 (centres unmarked) [#69],320 nM,,,,,,,,,,120 nM,
CC(C)(C)C1CCc2c(sc(NC(=O)c3ccccc3Cl)c2C(=O)O)C1 (centres unmarked) [#107],,1150 nM,105 min,35%,stabilisers,255 min,21%,75 min,41%,Stabilisers,,
O=C(Nc1sc2c(c1C(=O)O)C(c1ccccc1)CCC2)c1ccccc1 (centres unmarked) [#112],,1370 nM,100 min,29%,stabilisers,425 min,23%,during 180 minutes,64%,Stabilisers,,Stabilisers
CC(C)(C)C1CCc2c(sc(NC(=O)C3CCCCC3)c2C(=O)O)C1 (centres unmarked) [#115],,1470 nM,100 min,34%,stabilisers,240 min,15%,65 min,28%,,,
